Measured values reported in patent publication US9642831B2, “Substituted chromanes and method of use” (AbbVie S.á.r.l., priority 2014, dated 2017).

Molecular target: F508delCFTR (Homo sapiens, UniProt P13569, DEL508-508)
Test: Cell Surface Expression-Horse Radish Peroxidase (CSE-HRP) assay
Assay type: cell-based
Parameters: expressed in transfected cells; host or cells: CFBE41o- human lung derived epithelial cell line, doxycycline-inducible
Conditions: CFBE4lo-F508delCFTR-HRP cells; for EC50: 18-24 hours at 33° C., 8-point curve, highest concentration 20 μM, luminescence readout; for Emax: maximum % activity at any tested concentration, normalized to on-plate positive control (3 μM Example 1)
From the text: Cell Surface Expression-Horse Radish Peroxidase (CSE-HRP) Assay:
A cellular assay for measuring the F508delCFTR cell surface expression after correction with test compounds was developed in human lung derived epithelial cell line (CFBE4lo-) (Veit G et al, (2012) Mol Biol Cell. 23(21): 4188-4202). This was achieved by expressing the F508delCFTR mutation along with a horseradish peroxidase (HRP) in the fourth exofacial loop and then measuring the HRP activity using luminescence readout from these cells, CFBE4lo-F508delCFTR-HRP, that were incubated overnight with the test corrector compounds. Briefly, for this primary assay, the CFBE4lo-F508delCFTR-HRP cells were plated in 384-well plates (Greiner Bio-one; Cat 781080) at 4,000 cells/well along with 0.5 μg/mL doxycycline to induce the F508delCFTR-HRP expression and further incubated at 37° C., 5% CO2 for 72 hours. The test compounds were then added at the required concentrations and further incubated for 18-24 hours at 33° C. The highest concentration tested was 20 μM with an 8-point concentration response curve using a 3-fold dilution. Three replicate plates were run to determine one EC50. All plates contained negative controls (dimethyl sulfoxide, DMSO) and positive controls (3 μM of 3-[(2R,4R)-4-({[1-(2,2-difluoro-1,3-benzodioxol-5-yl)cyclopropyl]carbonyl}amino)-7-methoxy-3,4-dihydro-2H-chromen-2-yl]benzoic acid) as well as on-plate concentration response of the positive control. Post incubation, the plates were washed 5× times with Dulbecco's phosphate buffered saline (DPBS), followed by the addition of the HRP substrate, luminol (50 μL), and measuring the HRP activity using luminescence readout on EnVision® Multilabel Plate Reader (Perkin Elmer; product number 2104-0010). The raw counts from the experiment are analyzed using Accelrys® Assay Explorer v3.3.
Z′ greater than 0.5 was used as passing quality control criteria for the plates.
The Z′ is defined as: 1−[3*SDPositive Control+3*SDNegative Control/Absolute(MeanPositive Control−MeanNegative Control)] wherein “SD” is standard deviation.
The % activity measured at each of the 8 test concentrations of the test compound was normalized to the on-plate positive control using the following formula: % activity=[(test compound response−DMSO response)/(positive control response−DMSO response)]*100
The maximum % activity achieved for the test compound at any tested concentration is presented in Table 1 along with the EC50 calculated using the following general sigmoidal curve with variable Hill slope equation (described as Model 42 in the Accelrys® Assay Explorer v3.3 software): y=(a−d)/(1+(x/c)^b)+d
General sigmoidal curve with concentration, response, top, bottom, EC50 and Hill slope.
This model describes a sigmoidal curve with an adjustable baseline, a. The equation can be used to fit curves where response is either increasing or decreasing with respect to the independent variable, “x”.
“x” is a concentration of drug under test.
“a” is the maximum response, and “d” is the minimum response
“c” is the inflection point (EC50) for the curve. That is, “y” is halfway between the lower and upper asymptotes when x=c.
“b” is the slope-factor or Hill coefficient. The sign of b is positive when the response increases with increasing dose and is negative when the response decreases with increasing dose (inhibition).

Sequence of F508delCFTR (P13569 with tags, fused parts or gaps DEL508-508): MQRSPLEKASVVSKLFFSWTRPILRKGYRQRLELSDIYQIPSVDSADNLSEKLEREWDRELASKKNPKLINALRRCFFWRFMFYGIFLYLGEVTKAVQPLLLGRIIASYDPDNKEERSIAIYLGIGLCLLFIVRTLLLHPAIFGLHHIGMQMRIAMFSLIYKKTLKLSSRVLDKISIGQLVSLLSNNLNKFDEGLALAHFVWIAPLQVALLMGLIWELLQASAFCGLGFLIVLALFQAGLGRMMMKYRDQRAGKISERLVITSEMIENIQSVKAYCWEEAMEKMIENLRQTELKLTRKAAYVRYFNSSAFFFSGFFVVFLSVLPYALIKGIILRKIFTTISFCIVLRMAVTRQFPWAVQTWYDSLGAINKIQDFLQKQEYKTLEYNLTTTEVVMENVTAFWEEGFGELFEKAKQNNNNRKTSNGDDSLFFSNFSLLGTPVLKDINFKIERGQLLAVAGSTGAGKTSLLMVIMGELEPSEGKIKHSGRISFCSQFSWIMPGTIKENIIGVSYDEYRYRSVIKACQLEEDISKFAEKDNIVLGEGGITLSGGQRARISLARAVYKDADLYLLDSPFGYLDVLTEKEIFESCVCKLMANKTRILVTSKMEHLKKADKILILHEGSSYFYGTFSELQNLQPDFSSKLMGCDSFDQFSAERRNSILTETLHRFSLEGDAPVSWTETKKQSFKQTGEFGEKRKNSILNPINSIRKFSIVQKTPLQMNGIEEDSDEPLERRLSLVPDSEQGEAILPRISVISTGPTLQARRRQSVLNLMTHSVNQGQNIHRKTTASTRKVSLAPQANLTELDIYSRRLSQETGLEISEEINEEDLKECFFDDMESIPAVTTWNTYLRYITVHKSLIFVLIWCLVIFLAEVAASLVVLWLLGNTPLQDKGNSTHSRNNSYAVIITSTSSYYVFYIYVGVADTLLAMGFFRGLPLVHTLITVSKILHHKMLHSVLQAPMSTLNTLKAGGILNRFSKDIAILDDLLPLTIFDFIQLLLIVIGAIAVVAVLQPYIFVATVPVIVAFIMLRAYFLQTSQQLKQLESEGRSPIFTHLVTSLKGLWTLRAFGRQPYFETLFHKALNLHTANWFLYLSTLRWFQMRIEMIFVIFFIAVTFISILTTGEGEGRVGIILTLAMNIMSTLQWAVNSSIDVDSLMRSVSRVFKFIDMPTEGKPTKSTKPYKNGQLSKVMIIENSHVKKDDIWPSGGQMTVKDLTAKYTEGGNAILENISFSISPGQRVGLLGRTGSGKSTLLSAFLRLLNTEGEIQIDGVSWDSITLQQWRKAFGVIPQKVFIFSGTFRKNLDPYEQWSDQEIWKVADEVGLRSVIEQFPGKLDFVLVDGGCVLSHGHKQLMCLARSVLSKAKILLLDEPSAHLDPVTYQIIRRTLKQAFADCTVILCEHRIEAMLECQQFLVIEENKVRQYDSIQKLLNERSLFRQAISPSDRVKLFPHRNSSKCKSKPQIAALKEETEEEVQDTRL

| EC50 [nM] | Emax [%] | Compound |
| --- | --- | --- |
| 3600 | 70 | COC(=O)[C@H]1C[C@H](NC(=O)C2(c3ccc4c(c3)OC(F)(F)O4)CC2)c2ccc(OC)cc2O1 (racemic) [Example 131, methyl rac-(2R,4S)-4-({[1-(2,2-difluoro-1,3-benzodioxol-5-yl)cyclopropyl]carbonyl}amino)-7-methoxy-3,4-dihydro-2H-chromene-2-carboxylate] |
| > 20000 | 4 | COc1ccc2c(c1)O[C@@H](C(=O)O)C[C@@H]2NC(=O)C1(c2ccc3c(c2)OC(F)(F)O3)CC1 (racemic) [Example 134, rac-(2R,4S)-4-({[1-(2,2-difluoro-1,3-benzodioxol-5-yl)cyclopropyl]carbonyl}amino)-7-methoxy-3,4-dihydro-2H-chromene-2-carboxylic acid] |
| 2040 | 78 | COC(=O)C12CC([C@H]3C[C@@H](NC(=O)C4(c5ccc6c(c5)OC(F)(F)O6)CC4)c4ccc(OC)cc4O3)(C1)C2 (racemic) [Example 147, methyl rac-3-[(2R,4R)-4-({[1-(2,2-difluoro-1,3-benzodioxol-5-yl)cyclopropyl]carbonyl}amino)-7-methoxy-3,4-dihydro-2H-chromen-2-yl]bicyclo[1.1.1]pentane-1-carboxylate] |
| 1530 | 85 | CCOC(=O)c1ccc([C@H]2C[C@H](NC(=O)C3(c4ccc5c(c4)OC(F)(F)O5)CC3)c3ccccc3O2)nc1 (racemic) [Example 149, ethyl rac-6-[(2R,4S)-4-({[1-(2,2-difluoro-1,3-benzodioxol-5-yl)cyclopropyl]carbonyl}amino)-3,4-dihydro-2H-chromen-2-yl]pyridine-3-carboxylate] |
| 420 | 106 | CCOC(=O)c1ccc([C@H]2C[C@@H](NC(=O)C3(c4ccc5c(c4)OC(F)(F)O5)CC3)c3ccccc3O2)nc1 (racemic) [Example 150, ethyl rac-6-[(2R,4R)-4-({[1-(2,2-difluoro-1,3-benzodioxol-5-yl)cyclopropyl]carbonyl}amino)-3,4-dihydro-2H-chromen-2-yl]pyridine-3-carboxylate] |
| 1900 | 84 | O=C(O)c1ccc([C@H]2C[C@H](NC(=O)C3(c4ccc5c(c4)OC(F)(F)O5)CC3)c3ccccc3O2)nc1 (racemic) [Example 153, rac-6-[(2R,4S)-4-({[1-(2,2-difluoro-1,3-benzodioxol-5-yl)cyclopropyl]carbonyl}amino)-3,4-dihydro-2H-chromen-2-yl]pyridine-3-carboxylic acid] |
| 670 | 106 | O=C(O)c1ccc([C@H]2C[C@@H](NC(=O)C3(c4ccc5c(c4)OC(F)(F)O5)CC3)c3ccccc3O2)nc1 (racemic) [Example 154, rac-6-[(2R,4R)-4-({[1-(2,2-difluoro-1,3-benzodioxol-5-yl)cyclopropyl]carbonyl}amino)-3,4-dihydro-2H-chromen-2-yl]pyridine-3-carboxylic acid] |
| 3590 | 42 | CCOC(=O)[C@H]1C[C@@H](NC(=O)C2(c3ccc4c(c3)OC(F)(F)O4)CC2)c2ccc(OC)cc2O1 (racemic) [Example 163, ethyl rac-(2R,4R)-4-({[1-(2,2-difluoro-1,3-benzodioxol-5-yl)cyclopropyl]carbonyl}amino)-7-methoxy-3,4-dihydro-2H-chromene-2-carboxylate] |
| > 20000 | 2 | COc1ccc2c(c1)O[C@@H](C(=O)O)C[C@H]2NC(=O)C1(c2ccc3c(c2)OC(F)(F)O3)CC1 (racemic) [Example 164, rac-(2R,4R)-4-({[1-(2,2-difluoro-1,3-benzodioxol-5-yl)cyclopropyl]carbonyl}amino)-7-methoxy-3,4-dihydro-2H-chromene-2-carboxylic acid] |

Second part, the molecule before the results:

| Compound | EC50 [nM] | Emax [%] |
| --- | --- | --- |
| COC(=O)c1cccc([C@H]2C[C@H](NC(=O)C3(c4ccc5c(c4)OC(F)(F)O5)CC3)c3cccnc3O2)c1 (racemic) [Example 34, rac-methyl 3-[(2R,4S)-4-({[1-(2,2-difluoro-1,3-benzodioxol-5-yl)cyclopropyl]carbonyl}amino)-3,4-dihydro-2H-pyrano[2,3-b]pyridin-2-yl]benzoate] | ≥ 20000 | 15 |
| COc1ccc2c(c1)O[C@@H](C1CC1)C[C@H]2NC(=O)C1(c2ccc3c(c2)OC(F)(F)O3)CC1 (racemic) [Example 40, rac-N-[(2R,4R)-2-cyclopropyl-7-methoxy-3,4-dihydro-2H-chromen-4-yl]-1-(2,2-difluoro-1,3-benzodioxol-5-yl)cyclopropanecarboxamide] | 2680 | 107 |
| COc1ccc2c(c1)O[C@@H](C1CC1)C[C@@H]2NC(=O)C1(c2ccc3c(c2)OC(F)(F)O3)CC1 (racemic) [Example 41, rac-N-[(2R,4S)-2-cyclopropyl-7-methoxy-3,4-dihydro-2H-chromen-4-yl]-1-(2,2-difluoro-3-benzodioxol-5-yl)cyclopropanecarboxamide] | 2580 | 73 |
| COc1ccc2c(c1)O[C@@H](c1cccnc1)C[C@H]2NC(=O)C1(c2ccc3c(c2)OC(F)(F)O3)CC1 (racemic) [Example 57, rac-1-(2,2-difluoro-1,3-benzodioxol-5-yl)-N-[(2R,4R)-7-methoxy-2-(pyridin-3-yl)-3,4-dihydro-2H-chromen-4-yl]cyclopropanecarboxamide] | 1690 | 112 |
| COC(=O)c1cccc([C@H]2C[C@@H](NC(=O)C3(c4ccc5c(c4)OC(F)(F)O5)CC3)c3ccc(Cl)nc3O2)c1 (racemic) [Example 112, methyl rac-3-[(2R,4R)-7-chloro-4-({[1-(2,2-difluoro-1,3-benzodioxol-5-yl)cyclopropyl]carbonyl}amino)-3,4-dihydro-2H-pyrano[2,3-b]pyridin-2-yl]benzoate] | ≥ 20000 | 5 |
| COC(=O)c1cccc([C@H]2C[C@@H](NC(=O)C3(c4ccc5c(c4)OC(F)(F)O5)CC3)c3ccc(F)nc3O2)c1 (racemic) [Example 113, methyl rac-3-[(2R,4R)-4-({[1-(2,2-difluoro-1,3-benzodioxol-5-yl)cyclopropyl]carbonyl}amino)-7-fluoro-3,4-dihydro-2H-pyrano[2,3-b]pyridin-2-yl]benzoate] | 3550 | 49 |
| O=C(O)c1cccc([C@H]2C[C@@H](NC(=O)C3(c4ccc5c(c4)OC(F)(F)O5)CC3)c3ccc(Cl)nc3O2)c1 (racemic) [Example 114, rac-3-[(2R,4R)-7-chloro-4-({[1-(2,2-difluoro-1,3-benzodioxol-5-yl)cyclopropyl]carbonyl}amino)-3,4-dihydro-2H-pyrano[2,3-b]pyridin-2-yl]benzoic acid] | 4760 | 61 |
| COC(=O)c1cccc([C@H]2C[C@H](NC(=O)C3(c4ccc5c(c4)OC(F)(F)O5)CC3)c3ccc(F)nc3O2)c1 (racemic) [Example 118, methyl rac-3-[(2R,4S)-4-({[1-(2,2-difluoro-1,3-benzodioxol-5-yl)cyclopropyl]carbonyl}amino)-7-fluoro-3,4-dihydro-2H-pyrano[2,3-b]pyridin-2-yl]benzoate] | 8150 | 25 |
| CCOC(=O)[C@H]1C[C@H](NC(=O)C2(c3ccc4c(c3)OC(F)(F)O4)CC2)c2ccc(OC)cc2O1 (racemic) [Example 130, Ethyl rac-(2R,4S)-4-({[1-(2,2-difluoro-1,3-benzodioxol-5-yl)cyclopropyl]carbonyl}amino)-7-methoxy-3,4-dihydro-2H-chromene-2-carboxylate] | 2560 | 79 |
